According to PMC4257840 (Journal of Medicinal Chemistry, 2014):

Experiments:
Human cathepsin E = target: T1, Human cathepsin E (Homo sapiens, UniProt P14091); assay: Protease counter-screening: Cathepsin E; type: biochemical
T1 construct: host or cells: NS0 murine myeloma cell line
Method: (§1) Appendix 7. Protease Counter -Screening
(§2) Protease counter-screeni ng was performed using the methods described below. Initial screening was conducted in duplicate using a single test substance concentration of 10 µ M .
(§3) Additional assays were conducted in replicate for selected pairin gs of test s ubstance and enz yme in order to enable the determination of IC50 values using conventional procedures.
(§4) Determination of K i was made using the Batch K i program (Biokin Ltd, Pullman, WA) to derive values from the Morrison equation: […]
(§5) Where [E ] is the active enz yme concentration, Kiapp is the apparent inhibition const ant, v 0 is the control velocit y in the absence of inhibitors, vb is the background velocity, v is the initial reaction velocit y in the presence of inhibitor, and I is the inhibitor concentration.Thence:
Where [S ] is the substrate concentration and KM is the Michealis constant.
Caspase 1: Activity against human recombinant caspase 1 expressed in E. coli was tested using Ac-YVAD- AMC as the substrate. Test compound or vehicle was pre- incubated with 600 […]
Cathep sin D: Tests were performed using enz ym e purified from human li ver. Test compound or vehicle was pre- incubated with 190 mU/mL enz yme in modified acetate buffer pH 4.0 for 15 min at 37 °C. […]
The amount of MCA-P LG formed was measured spectrofluorimetricall y at 340 nm/400 nm. […]

[1] = target: T2, human recombinant caspase 1 (Homo sapiens, UniProt P29466); assay: Protease counter-screening: Caspase 1; type: biochemical
T2 construct: host or cells: E. coli
T2 sequence (P29466 120-297 limits assumed): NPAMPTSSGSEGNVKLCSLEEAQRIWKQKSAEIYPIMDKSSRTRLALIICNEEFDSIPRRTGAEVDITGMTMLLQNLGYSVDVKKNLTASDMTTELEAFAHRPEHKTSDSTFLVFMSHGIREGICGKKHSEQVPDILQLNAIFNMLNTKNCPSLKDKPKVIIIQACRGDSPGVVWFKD
T2 sequence (P29466 317-404 limits assumed): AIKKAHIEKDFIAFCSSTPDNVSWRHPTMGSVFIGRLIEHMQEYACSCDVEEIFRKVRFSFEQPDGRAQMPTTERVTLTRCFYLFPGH
Method: as §1, §2, §3, §4, §5
Where [S ] is the substrate concentration and KM is the Michealis constant. […]
by addition of 50 µM Ac-DEVD-AMC for another 60 min incubation period. The amount of AMC formed was determined fluorimetricall y (excitation 360 nm/emission 465 nm). […]
by addition of 25 µM Ac-LEH D-A FC for another 60 min incubation period. The amount of amino-4- trifluorometh ylcoumarin (AFC) formed determined fluorimetrically (400nm/ 510nm).
Cathepsin C: Cathepsin C from bovine spleen was used as the source of enz yme. […] T he amount of AMC product formed was read spectrofluorimetrically

T1 sequence (P14091 54-396): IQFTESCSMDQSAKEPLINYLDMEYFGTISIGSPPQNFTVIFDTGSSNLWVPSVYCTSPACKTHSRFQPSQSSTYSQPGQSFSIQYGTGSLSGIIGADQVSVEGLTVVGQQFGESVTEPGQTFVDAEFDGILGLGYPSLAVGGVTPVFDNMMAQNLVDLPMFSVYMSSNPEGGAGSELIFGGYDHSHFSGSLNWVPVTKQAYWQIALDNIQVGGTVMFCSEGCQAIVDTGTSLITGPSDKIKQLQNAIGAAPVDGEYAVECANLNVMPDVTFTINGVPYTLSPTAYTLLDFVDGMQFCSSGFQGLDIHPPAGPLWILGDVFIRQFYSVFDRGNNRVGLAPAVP

CC(C)[C@H](NC(=O)[C@H](C)NC(=O)[C@@H](NC(=O)c1ccccc1)C(C)(C)C)C(=O)C(=O)NCc1ccccc1 [Compound 38, N-{(S)-1-[(S)-1-((S)-1-Benzylaminooxalyl-2-methyl-propylcarbamoyl)-ethylcarbamoyl]-2,2-dimethyl-propyl}-benzamide]
inhibition at 10 µM (Human cathepsin E): 23%
inhibition at 10 µM [1]: 8%
